{"source": "patent US11161831B2", "about": "“Methods and compositions for treatment of muscle wasting, muscle weakness, and/or cachexia” (Baylor College of Medicine, priority 2013, dated 2021)", "key": {"[1]": {"system": "CD2F1 mice bearing C26 tumor", "assay": "Cancer cachexia in CD2F1 mice bearing C26 tumor", "type": "in vivo, mouse", "experimental": "FIGS. 39A-39G provides that blocking Stat3 activation with C188-9, a Stat3 inhibitor, suppresses cancer cachexia. CD2F1 mice bearing C26 tumor for 5 days were treated with C188-9 twice daily for 14 days. Results from these mice were compared to those of CD2F1 mice bearing tumor and treated with the diluent, 5% dextose in water (D5W). CD2F1 mice without C26 tumors served as the control mice. There were 12 mice in each group. FIG. 39A. representative western blots of different proteins (upper panel) were quantified (lower panel). Results shown are: FIG. 39B. body weights; FIG. 39C. muscle weights; FIG. 39D. the distribution of myofiber sizes of in the 3 groups of mice; FIG. 39E. muscle grip strength; and FIGS. 39F & 39G are measured rates of protein synthesis and degradation. Results are mean±SEM.\nFIG. 41A. C2Cl2 myotubes were treated with conditioned media from C26 cells with or without C188-9 for 72 hours. A representative western blot showing a decrease in the myosin heavy chain is blocked by C188-9. FIG. 41B. C2Cl2 myotubes were treated with conditioned media from C26 cells with or without C188-9 for 24 hours. Levels of mRNAs of MAFbx/Atrogin-1 and MuRF-1 are shown. FIGS. 41C & 41D. CD2F1 mice bearing C26 tumors were treated with C188-9 for 2 weeks. […] FIG. 41E. […] Results are mean±SEM.\nAll animal experiments and procedures were approved by the Baylor College of Medicine Institutional Animal Care and Use Committee (IACUC). CD2F1 mice (Charles River; Houston, Tex.) were studied at 8-10 weeks of age following subcutaneous injection of C26 tumor cells (5×10^6 cells in 500 μL medium) in the right flank. After 5 days, tumor bearing mice were treated with daily injections of the diluent, D5W (control), or C188-9 (12.5 mg Stat3 inhibitor/kg body weight). Control and cancer bearing mice were pair-fed for 14 days and growth was measured. For pair-feeding, the amount eaten by the cancer-bearing mouse was fed to the paired, control mouse the following day.\nAs described Soleus and EDL muscles were rapidly removed from mice (Zhang et al., 2011; Clark and Mitch, 1983). The muscles were maintained at resting length during incubation in Krebs-Henseleit bicarbonate buffer with 10 mM glucose and L-[U-^14C]phenylalanine. Protein synthesis was measured as the rate of incorporation of L-[U-^14C]phenylalanine in muscle protein while protein degradation was assessed as the release of tyrosine from muscle proteins undergoing degradation. Phenylalanine and tyrosine were studied because they are neither synthesized nor degraded by muscle and they rapidly equilibrate with the intracellular free amino acid pool in muscle.\nProteasomes were partially purified by differential centrifugation; equal amounts of protein from the preparations of proteasomes were used to measure proteasome activity as the release of 7-amino-4-methylcoumarin (AMC) from the fluorogenic peptide substrate LLVY-AMC (N-Suc-Leu-Leu-Val-Tyr-AMC). AMC fluorescence was measured using 380 nm excitation and 460 nm emission wavelengths. The difference between the fluorescence measured in the presence and absence of […] lactacystin was used to calculate proteasome activity.\nMouse grip strength was measured as described (Zhang et al., 2013). Briefly, 5 grip strengths were assessed at 1 min intervals using the Grip Strength Meter (Columbus Instrument Co., Columbus, Ohio). The average grip strength over 4 days was calculated."}, "[2]": {"system": "Janus kinases (Jak1, Jak2) or Src family kinases (Hck, Lyn or Srms)", "conditions": "10 μM concentration; cited from earlier work"}, "[3]": {"conditions": "tumor bearing mice, EDL and soleus"}}}
{"smiles": "COc1ccc(S(=O)(=O)Nc2cc(-c3c(O)ccc4ccccc34)c(O)c3ccccc23)cc1", "note": "[C188-9]", "values": [{"measurement": "Stat3 activation in muscle", "setting": "[1]; 12.5 mg/kg for 14 days beginning at 5 days after tumor implantation", "value": "suppressed"}, {"measurement": "body weight", "setting": "[1]; 14 days treatment, tumor in place for 19 days, vs. D5W", "value": "significant increase"}, {"measurement": "increased proteasome activity in muscle", "setting": "[1]; mice bearing C26 tumor", "value": "suppressed"}, {"measurement": "grip strength", "setting": "[1]; tumor bearing mice", "value": "improved grip strength"}, {"measurement": "sizes of myofibers", "setting": "[1]; tumor bearing mice", "value": "improvement"}, {"measurement": "muscle protein degradation", "setting": "[1]; [3]", "value": "decrease in protein degradation"}, {"measurement": "muscle protein synthesis", "setting": "[1]; [3]", "value": "increase in protein synthesis"}, {"measurement": "weights of tibialis anterior, gastrocnemius, soleus and EDL muscles", "setting": "[1]; vs. pair-fed, tumor bearing mice treated with D5W", "value": "significantly greater"}, {"measurement": "inhibition of upstream tyrosine kinases Jak1, Jak2, Hck, Lyn or Srms", "setting": "[2]", "value": "did not inhibit"}]}
